The first test concerns INFα induced pSTAT5. Description: INFα induced pSTAT5 in human PBMC. In kind it is cell-based. As to conditions: Homo sapiens, PBMC, INFα 5000 units/ml, read-out: p-STAT5 IC50. How it is done: Fresh Human PBMCs were resuspended in RPMI 1640 medium with 10% FBS. Cells were seeded in a round bottom 96-well plate at the concentration of 200,000 cells/well. A 10-point dilution series of test compound (top dose 10 uM, 1:5 dilution) was added to the well using the liquid dispenser (Tecan D300e) and incubated for 1 hour at 37 C. Then human INFα recombinant protein (R&D Systems) was added to the well at the final concentration of 5000 units/ml and incubated for 15 minutes at 37 C. Cell lysates were prepared and analyzed by Phospho STAT3 (Tyr705) cellular kit (Cisbio) or Phospho STAT5 (Tyr693) Kit (Meso Scale Discovery) following manufacturer's protocol.
For calculation of the inhibition rate, the relative pSTAT signal of each well=pSTAT signal of each well−the average pSTAT signal of baseline.
The inhibition %=(the average pSTAT signal of INFα treatment wells—the relative of pSTAT signal in each compound containing well)/the average pSTAT signal of INFα treatment wells * 100%
The curve was plotted as the inhibition % (y-axis) vs. compounds concentration (x-axis) and was fitted with log(inhibitor) vs. normalized response—Variable slope by GraphPad Prism7.0.
Usually IC50 stands for the concentration that inhibits the measured activity by half. Turning to `CNc1cc2nc3c(cnn13)C(=O)N[C@H](C)COCc1cc(F)c(OC)c(c1)N2` [Example 62], the half-inhibitory concentration (IC50) was found to be 3.8 nM.

As for `CNc1cc2nn3c(cnc13)C(=O)NC(C)COCc1cc(c(OC)cc1F)N2` (centres unmarked) [Example 16], the concentration for half-maximal inhibition (IC50) was determined as 3.6 nM. Same read-out and setting: for `CNc1cc2nc3c(cnn13)C(=O)N[C@H](C)COCc1cc(c3cnn(C)c3c1)N2` [Example 54, (R, 1^3E, 1^4E)-31,7-dimethyl-1^7-(methylamino)-31H-5-oxa-2,8-diaza-1(5,3)-pyrazolo[1,5-a]pyrimidina-3(4,6)-indazolacyclononaphan-9-one] the value was 0.3 nM; for `CNc1cc2nc3c(cnn13)C(=O)N[C@H](C)COCc1ccc(C#N)c(c1)N2` [Example 40], 2.4 nM; for `CNc1cc2nc3c(cnn13)C(=O)N[C@H](C)COCc1cc(cc(OC)c1)N2` [Example 45], 1.1 nM. Still for that read-out and setting: for `CNc1cc2nn3c(cnc13)C(=O)N[C@H](C)COCc1nc(C)cc(n1)N2` [Example 50, (7R,E)-3^6,7-dimethyl-1^8-(methylamino)-5-oxa-2,8-diaza-1(6,3)-imidazo[1,2-b]pyridazina-3(4,2)-pyrimidinacyclononaphan-9-one] the value was over 1000 nM; for `CNc1cc2nc3c(cnn13)C(=O)N[C@H](C)COCc1ccc(OC(F)(F)F)c(c1)N2` [Example 43], 3.8 nM; for `CNc1cc2nn3c(cnc13)C(=O)N[C@H](C)COCc1cnc(OC)c(c1)N2` [Example 14], 3 nM. The same measure, in the same setting: for `CNc1cc2nn3c(cnc13)C(=O)N[C@H]1C[C@H](C1)OCc1ccc(OC)c(c1)N2` [Example 22] the value was 10.7 nM; for `CNc1cc2nc3c(cnn13)C(=O)N[C@H](C)COCc1cc(nc(N3CCCC3=O)c1)N2` [Example 49], 1.7 nM; for `CNc1cc2nn3c(cnc13)C(=O)N[C@H](C)COCc1cc(c(OC)cc1F)N2` [Example 17, (E)-3^4-fluoro-3^6-methoxy-7-methyl-1^8-(methylamino)-5-oxa-2,8-diaza-1(6,3)-imidazo[1,2-b]pyridazina-3(1,3)-benzenacyclononaphan-9-one], 1 nM. In the case of `CNc1cc2nn3c(cnc13)C(=O)NC1(CC1)COCc1ccc(OC)c(c1)N2` [Example 20, (E)-6′-methoxy-8′-(methylamino)spiro[cyclopropane-1,7′-5-oxa-2,8-diaza-1(6,3)-imidazo[1,2-b]pyridazina-3(1,3)-benzenacyclononaphan]-9′-one], the IC50 was 15.3 nM.

For `CNc1cc2nn3c(cnc13)C(=O)N[C@H](C)COCc1cc(c(=O)n(C)n1)N2` [Example 58, (15E,34E,7R)-31,7-dimethyl-18-(methylamino)-31,36-dihydro-5-oxa-2,8-diaza-1(6,3)-imidazo[1,2-b]pyridazina-3(5,3)-pyridazinacyclononaphane-36,9-dione], the IC50 was found to be 7.7 nM.

For `CNc1cc2nn3c(cnc13)C(=O)N[C@H](C)COCc1ccc(OC)c(c1)N2` [Example 42], the half-inhibitory concentration (IC50) was 13.6 nM. On the same count and under the same terms, for `CNc1cc2nc3c(cnn13)C(=O)N[C@H](C)COCc1ccc(F)c(c1)N2` [Example 56, (R, 1^3E, 1^4E)-3^6-fluoro-7-methyl-1^7-(methylamino)-5-oxa-2,8-diaza-1(5,3)-pyrazolo[1,5-a]pyrimidina-3(1,3)-benzenacyclononaphan-9-one] the value was 28.8 nM; for `CNc1cc2nn3c(cnc13)C(=O)NCCOC(C)c1ccc(OC)c(c1)N2` (centres unmarked) [Example 13], 460 nM. Turning to `CNc1cc2nc3c(cnn13)C(=O)N[C@H](C)COCc1cc(c(OC)nn1)N2` [Example 59, (R,1^3E,1^4E)-3^6-methoxy-7-methyl-1^7-(methylamino)-5-oxa-2,8-diaza-1(5,3)-pyrazolo[1,5-a]pyrimidina-3(5,3)-pyridazinacyclononaphan-9-one], the IC50 is 39.1 nM.

In the case of `CNc1cc2nc3c(cnn13)C(=O)N[C@H](C)COCc1cc(c3oc(C)nc3c1)N2` [Example 34], the IC50 was found to be 2.5 nM. Consider `CNc1cc2nc3c(cnn13)C(=O)N[C@H](C)COCc1cc(c3nn(C)cc3c1)N2` [Example 29], for which the concentration for half-maximal inhibition (IC50) is 3.1 nM. As for `CNc1cc2nc3c(cnn13)C(=O)N[C@H](C)COCc1cc(c3nn(C)nc3c1)N2` [Example 35], the IC50 was 1.7 nM. For `CNc1cc2nc3c(cnn13)C(=O)N[C@H](C)COCc1cc(c3cn(C)nc3c1)N2` [Example 53, (R, 1^3E, 1^4E, 3^4E)-3^2,7-dimethyl-1^7-(methylamino)-3^2H-5-oxa-2,8-diaza-1(5,3)-pyrazolo[1,5-a]pyrimidina-3(4,6)-indazolacyclononaphan-9-one], the IC50 was 9.4 nM. The same measure, in the same setting: for `CNc1cc2nc3c(cnn13)C(=O)N[C@H](C)COc1ccc(OC)c(c1)N2` [Example 38] the value was over 200 nM. Still for that read-out and setting: for `CNc1cc2nn3c(cnc13)C(=O)NC(C)CCn1ncc3cc(OC)c(cc31)N2` (centres unmarked) [Example 21, (E)-3^5-methoxy-6-methyl-1^8-(methylamino)-31H-2,7-diaza-1(6,3)-imidazo [1,2-b]pyridazina-3(6,1)-indazolacyclooctaphan-8-one] the value was 102 nM; for `CNc1cc2nc3c(cnn13)C(=O)N[C@@H](C)C(C)OCc1ccc(OC)c(c1)N2` (some centres unmarked) [Example 30], over 200 nM. Same read-out and setting: for `CNc1cc2nc3c(cnn13)C(=O)N[C@H](C)COCc1cc(F)cc(c1)N2` [Example 46] the value was 2.8 nM; for `CNc1cc2nn3c(cnc13)C(=O)N[C@H](C)COCc1cc(F)c(OC)c(c1)N2` [Example 18, (7R,E)-3^5-fluoro-3^6-methoxy-7-methyl-1^8-(methylamino)-5-oxa-2,8-diaza-1(6,3)-imidazo[1,2-b]pyridazina-3(1, 3)-benzenacyclononaphan-9-one], 1.3 nM. For the molecule `CNc1cc2nc3c(cnn13)C(=O)N[C@H](C)COCc1cc(C#N)cc(c1)N2` [Example 44], the IC50 worked out at 2 nM.

Turning to `CNc1cc2nc3c(cnn13)C(=O)N[C@H](C)COCc1cc(Br)c(OC)c(c1)N2` [Example 48], the IC50 amounted to 16.7 nM.

For the molecule `CNc1cc2nn3c(cnc13)C(=O)NCCCOc1cnc(OC)c(c1)N2` [Example 5], the IC50 amounted to 151 nM.

In the case of `CNc1cc2nc3c(cnn13)C(=O)N[C@H](C)COCc1cc(c(=O)n(-c3ccccn3)c1)N2` [Example 28], the concentration for half-maximal inhibition (IC50) was 8.3 nM. In the case of `CNc1cc2nn3c(cnc13)C(=O)N[C@@H](C)COCc1ccc(OC)c(c1)N2` [Example 11], the IC50 was found to be 436 nM. The same measure, in the same setting: for `CNc1cc2nc3c(cnn13)C(=O)N[C@H](C)COCc1cc(c3nccn3c1)N2` [Example 60, (R,1^3E,1^4E,3^7E)-7-methyl-1^7-(methylamino)-5-oxa-2,8-diaza-1(5,3)-pyrazolo[1,5-a]pyrimidina-3(8,6)-imidazo[1,2-a]pyridinacyclononaphan-9-one] the value was 3.8 nM. For the molecule `CNc1cc2nc3c(cnn13)C(=O)N[C@H](C)COCc1cc(c(OC)cn1)N2` [Example 27], the IC50 came out at 7.2 nM. For the molecule `CNc1cc2nc3c(cnn13)C(=O)NC(C)COCc1ccc(OC)c(c1)N2` (centres unmarked) [Example 12], the half-inhibitory concentration (IC50) is 2.2 nM. On the same count and under the same terms, for `CNc1cc2nn3c(cnc13)C(=O)NCC(C)OCc1ccc(OC)c(c1)N2` (centres unmarked) [Example 8] the value was 13.9 nM; for `CNC(=O)c1ccc2cc1Nc1cc(NC)n3ncc(c3n1)C(=O)N[C@H](C)COC2` [Example 41], 3.6 nM. On the same count and under the same terms, for `CNc1cc2nn3c(cnc13)C(=O)NCCOCc1cccc(OC)c1N2` [Example 9] the value was 923 nM; for `CNc1cc2nc3c(cnn13)C(=O)N[C@H](C)COCc1cc(c3nnn(C)c3c1)N2` [Example 36], 0.7 nM; for `CNc1cc2nc3c(cnn13)C(=O)N[C@H](C)COCc1ccc(OC)c(c1)N2` [Example 25], 2.1 nM. Still for that read-out and setting: for `CNc1cc2nc3c(cnn13)C(=O)N[C@H](C)COCc1cc(c3c(c1)nnn3C)N2` [Example 37] the value was 90.1 nM; for `COc1ccc2nc1Nc1cc(N)n3ncc(c3n1)C(=O)N[C@H](C)COC2` [Example 55, (R, 1^3E, 1^4E)-33-methoxy-7-methyl-1^7-(methylamino)-5-oxa-2,8-diaza-1(5,3)-pyrazolo[1,5-a]pyrimidina-3(2,6)-pyridinacyclononaphan-9-one], over 200 nM; for `CNc1cc2nc3c(cnn13)C(=O)N[C@H](C)COCc1cc(c(=O)n(C)n1)N2` [Example 57, (R,1^3E,1^4E,3^4E)-31,7-dimethyl-1^7-(methylamino)-3^1,3^6-dihydro-5-oxa-2,8-diaza-1(5,3)-pyrazolo[1,5-a]pyrimidina-3(5,3)-pyridazinacyclononaphane-36,9-dione], 21.2 nM.

The test is the same for the next values; noted with them: INFα 5000 units/ml, read-out: p-STAT5 IC50.
Consider `CNc1cc2nc3c(cnn13)C(=O)N[C@H](C)COCc1cnc(OC)c(c1)N2` [Example 26], for which the IC50 was over 200 nM. Same read-out and setting: for `CNc1cc2nc3c(cnn13)C(=O)N[C@H](C)C(C)OCc1ccc(OC)c(c1)N2` (single isomer, unassigned) [Example 33] the value was 42.8 nM. Still for that read-out and setting: for `CNc1cc2nc3c(cnn13)C(=O)N[C@@H](C)C(C)OCc1ccc(OC)c(c1)N2` (some centres unmarked) [Example 31] the value was over 200 nM; for `CNc1cc2nc3c(cnn13)C(=O)N[C@H](C)C(C)OCc1ccc(OC)c(c1)N2` (single isomer, unassigned) [Example 32], 0.7 nM; for `CNc1cc2nc3c(cnn13)C(=O)N[C@H](C)COCc1cnc(OC)c(c1)N2` [Example 47], 2.4 nM.
